We go through ten molecules from publication PMC5539068, “Structural optimization and evaluation of novel 2-pyrrolidone-fused (2-oxoindolin-3-ylidene)methylpyrrole derivatives as potential VEGFR-2/PDGFRβ inhibitors” (Chemistry Central Journal, 2017).

Entries after “also recorded” stand apart in the source; their conditions may differ.

One may read the IC50 as the concentration that inhibits the measured activity by half. For orientation: inhibition means how much of the control response was suppressed. What is called melting point is the temperature of the solid-liquid transition.

The test system of one data set is HUVEC cells. Nature of the data set: In-vitro VEGF-induced Matrigel tube formation assay. The settings on record: for IC50: Homo sapiens, HUVEC, VEGF 10 ng/ml, Matrigel, 6 h, read-out: IC50 Area (in vitro tube formation). It counts as cell-based, human. How it is done: The in vitro tube formation assay was assessed using ibidi μ-Slides (15-well, ibidi GmbH, Martinsried, Germany) in accordance with manufacturer’s protocol. Briefly, growth factor reduced Matrigel (10 μl) (Sigma, St. Louis MO) was added to the inner well of ibidi μ-Slides, and incubated at 37 °C for 1 h. […] 10,000 HUVEC cells in 50 μl of above growth medium was added to Matrigel (Sigma, St. Louis MO, USA) coated ibidi μ-Slides. After 6 h of incubation at 37 °C, the supernatant was discarded, and 50 μl of serum-free medium with diluted calcein AM (6.25 μg/ml) was added to above ibidi μ-Slides. After incubation in the dark at room temperature for 30 min, the μ-Slides were washed with PBS (50 μl) and fluorescence pictures were taken at 485 nm with a Leica DM1000 LED microscope (Leica Microsystems, Wetzlar, Hessen, Germany).

Data set [1] concerns Detroit 551 cells. How it is done:
(§1) Cells were seeded at 5000 cells/well on a 96-well plate for 24 h. The indicated compounds in different concentrations (100 μl) were added to cells. After 6 h, old medium was aspirated, and the cells were washed three times with PBS. WST-8 (Dojindo, Rockville, MD, USA) (10 µl) was added to each well, and the absorbance of the plate was recorded at 450 nm on a microplate spectrophotometer (Thermo Fisher Scientific, Waltham, MA, USA).

Data set [2] has as its system HCT116 cells. How it is done:
as §1

A further data set has as its system 786-O cells. Nature of the data set: Cell proliferation assay (MTT), 786-O. The settings on record: for IC50: Homo sapiens, 786-0, 72 h, read-out: IC50 786-O; for selective index (SI) 786-O: versus Detroit 551.
Data set [3] has as its system HCT116 cells. Nature of the data set: Cell proliferation assay (MTT), HCT116. The settings on record: for IC50: Homo sapiens, HCT-116, 72 h, read-out: IC50 HCT116; for selective index (SI) HCT116: versus Detroit 551.
Experimental: (§2) Serial dilutions of indicated compounds were added and incubated for additional 72 h. At the end of the incubation, cell viability was determined by the 3-(4,5-dimethylthiazol-2-yl)-2,5-diphenyl tetrazolium bromide (MTT) assay. The MTT formazan crystals formed were dissolved in DMSO, and the absorbance at 570 nm was recorded using a microplate spectrophotometer (Thermo Fisher Scientific, Waltham, MA, USA) [46].
In the next data set the test system is NCI-H460 cells. Nature of the data set: Cell proliferation assay (MTT), NCI-H460. The settings on record: for IC50: Homo sapiens, NCI-H460, 72 h, read-out: IC50 NCI-H460; for selective index (SI) NCI-H460: versus Detroit 551.
Data set [4] relates to HCT116 cells. Nature of the data set: Cell cycle analysis by image cytometry (DAPI). The settings on record: 24 h, preliminary.
Experimental: Cell cycle profiles of HCT116 cells were determined with an NC-3000 image cytometer (ChemoMetec, Allerod, Denmark) in accordance with manufacturer’s protocol. Briefly, cells were seeded at 200,000 cells/well on a 6-well plate for 24 h. […] After incubation for 24 h, 100,000 cells were harvested and centrifuged at 400 g at room temperature for 5 min, washed once with PBS (50 μM), and resuspended in lysis buffer (50 μl) (ChemoMetec, Allerod, Denmark) containing 10 μg/ml of 2-(4-amidinophenyl)-1H-indole-6-carboxamidine (DAPI, ChemoMetec, Allerod, Denmark). […] The cellular fluorescence was measured with an NC-3000 image cytometer using NC-SlideA8 (ChemoMetec, Allerod, Denmark). The NC-3000 software (ChemoMetec, Allerod, Denmark) was used for image acquisition, image analysis and quantification, and data visualization.
For another data set, the target named is T1, Aurora A (Homo sapiens, UniProt O14965).
T1 sequence (O14965 1-403): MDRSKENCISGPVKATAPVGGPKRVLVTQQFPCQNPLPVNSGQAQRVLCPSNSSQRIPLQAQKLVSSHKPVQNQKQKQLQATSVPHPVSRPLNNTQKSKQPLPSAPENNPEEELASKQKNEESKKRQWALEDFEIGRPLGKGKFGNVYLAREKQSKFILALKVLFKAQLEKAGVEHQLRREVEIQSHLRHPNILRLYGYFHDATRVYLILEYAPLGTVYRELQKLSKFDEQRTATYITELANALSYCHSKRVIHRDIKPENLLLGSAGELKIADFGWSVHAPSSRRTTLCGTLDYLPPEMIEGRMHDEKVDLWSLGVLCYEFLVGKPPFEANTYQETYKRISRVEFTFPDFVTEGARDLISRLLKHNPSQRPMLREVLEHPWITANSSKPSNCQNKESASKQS
Nature of the data set: In-vitro kinase assay (HotSpot, 33P), Aurora A. The settings on record: ATP 10.0 μM; for inhibition at 1 µM: read-out: % inhibition of Aurora A at 1.0 μM, 1.0 μM compound.

Data set [5] relates to Detroit 551 cells. Nature of the data set: Cell proliferation assay (MTT), normal fibroblast Detroit 551. The settings on record: Homo sapiens, Detroit 551, 72 h, read-out: IC50 Detroit 551.
Experimental: as §2
In a further data set the target is VEGFR-2 (Homo sapiens, UniProt P35968). Nature of the data set: In-vitro kinase assay (HotSpot, 33P), VEGFR-2. The settings on record: for % inhibition of VEGFR-2 at 80 nM: 80 nM compound, ATP 10.0 μM; for inhibition at 0.08 µM: read-out: % inhibition of VEGFR-2 at 80 nM.
In another data set the target is PDGFRβ (Homo sapiens, UniProt P09619). Briefly: In-vitro kinase assay (HotSpot, 33P), PDGFRβ.
Sequence of PDGFRβ (P09619 33-1106): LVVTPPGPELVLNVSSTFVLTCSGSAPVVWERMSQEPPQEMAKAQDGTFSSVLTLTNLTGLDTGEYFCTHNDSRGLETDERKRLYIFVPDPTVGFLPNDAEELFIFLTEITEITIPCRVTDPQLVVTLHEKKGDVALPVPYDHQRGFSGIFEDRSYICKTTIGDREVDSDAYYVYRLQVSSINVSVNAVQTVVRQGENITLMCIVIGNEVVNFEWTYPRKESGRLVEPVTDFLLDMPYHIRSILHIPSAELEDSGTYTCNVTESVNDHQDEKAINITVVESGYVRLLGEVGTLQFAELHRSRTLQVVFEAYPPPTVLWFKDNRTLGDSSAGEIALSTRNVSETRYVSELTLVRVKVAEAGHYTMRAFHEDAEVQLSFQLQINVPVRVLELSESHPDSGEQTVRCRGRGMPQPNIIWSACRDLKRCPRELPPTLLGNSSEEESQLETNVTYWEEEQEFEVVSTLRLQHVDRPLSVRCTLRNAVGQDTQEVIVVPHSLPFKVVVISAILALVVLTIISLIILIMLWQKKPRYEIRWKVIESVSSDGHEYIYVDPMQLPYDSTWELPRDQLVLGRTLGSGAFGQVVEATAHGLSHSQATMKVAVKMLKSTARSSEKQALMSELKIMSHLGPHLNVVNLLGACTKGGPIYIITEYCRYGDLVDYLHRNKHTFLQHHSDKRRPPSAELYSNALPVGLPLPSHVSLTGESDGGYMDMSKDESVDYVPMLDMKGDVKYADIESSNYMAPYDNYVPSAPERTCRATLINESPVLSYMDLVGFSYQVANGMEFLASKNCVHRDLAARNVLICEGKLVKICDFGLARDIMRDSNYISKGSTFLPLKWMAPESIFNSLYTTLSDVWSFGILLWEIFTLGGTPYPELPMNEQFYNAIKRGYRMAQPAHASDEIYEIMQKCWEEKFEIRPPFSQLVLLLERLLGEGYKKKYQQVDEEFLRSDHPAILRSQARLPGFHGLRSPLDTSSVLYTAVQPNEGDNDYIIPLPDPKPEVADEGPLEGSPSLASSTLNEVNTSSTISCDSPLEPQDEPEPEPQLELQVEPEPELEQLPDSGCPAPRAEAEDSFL

Sequence of VEGFR-2 (P35968 20-1356): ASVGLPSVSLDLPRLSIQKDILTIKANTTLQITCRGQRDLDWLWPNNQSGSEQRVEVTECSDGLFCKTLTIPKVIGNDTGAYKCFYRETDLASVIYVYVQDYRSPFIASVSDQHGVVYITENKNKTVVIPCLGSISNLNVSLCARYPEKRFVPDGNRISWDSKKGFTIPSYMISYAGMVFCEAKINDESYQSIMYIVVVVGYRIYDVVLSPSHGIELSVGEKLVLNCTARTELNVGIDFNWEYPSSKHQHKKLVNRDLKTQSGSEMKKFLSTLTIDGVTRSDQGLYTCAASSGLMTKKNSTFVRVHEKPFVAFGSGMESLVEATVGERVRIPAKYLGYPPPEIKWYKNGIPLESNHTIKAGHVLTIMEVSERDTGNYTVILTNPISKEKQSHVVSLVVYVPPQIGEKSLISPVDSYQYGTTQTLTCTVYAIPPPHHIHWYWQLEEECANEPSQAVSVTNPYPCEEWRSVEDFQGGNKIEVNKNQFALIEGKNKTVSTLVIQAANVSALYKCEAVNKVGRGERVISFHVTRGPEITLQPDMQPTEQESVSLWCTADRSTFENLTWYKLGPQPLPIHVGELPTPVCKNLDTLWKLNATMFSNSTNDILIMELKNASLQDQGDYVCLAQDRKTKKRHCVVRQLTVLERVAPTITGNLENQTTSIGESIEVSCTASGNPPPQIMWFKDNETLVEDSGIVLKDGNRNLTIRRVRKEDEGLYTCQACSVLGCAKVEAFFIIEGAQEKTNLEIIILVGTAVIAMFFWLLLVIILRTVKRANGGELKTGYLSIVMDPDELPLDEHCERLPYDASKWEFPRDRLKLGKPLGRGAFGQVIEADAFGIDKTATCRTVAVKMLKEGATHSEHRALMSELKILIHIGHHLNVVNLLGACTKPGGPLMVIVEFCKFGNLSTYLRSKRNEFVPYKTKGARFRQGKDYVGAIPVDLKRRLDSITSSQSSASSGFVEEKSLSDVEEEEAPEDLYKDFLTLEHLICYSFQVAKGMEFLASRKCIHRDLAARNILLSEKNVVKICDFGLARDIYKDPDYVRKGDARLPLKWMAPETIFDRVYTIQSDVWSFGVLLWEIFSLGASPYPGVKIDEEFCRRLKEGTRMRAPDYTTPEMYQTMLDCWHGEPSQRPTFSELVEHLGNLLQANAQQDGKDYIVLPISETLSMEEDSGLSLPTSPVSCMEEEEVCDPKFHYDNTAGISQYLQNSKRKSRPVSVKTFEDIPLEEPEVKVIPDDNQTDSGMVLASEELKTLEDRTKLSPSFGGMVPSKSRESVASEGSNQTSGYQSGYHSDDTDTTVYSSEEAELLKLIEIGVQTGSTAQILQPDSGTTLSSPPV
Experimental for 786-O cells: as §2
Experimental for Aurora A: (§3) Briefly, specific kinase and substrate and required cofactors were prepared in reaction buffer. Test compounds were added to the reaction and after 20 min a mixture of ATP (Sigma, St. Louis MO, USA) and ^33P ATP (Perkin Elmer, Waltham MA, USA) was added to make a final concentration of 10.0 μM. Reactions were stood at room temperature for 120 min, and then the reactions were spotted onto a P81 ion exchange filter paper (Whatman Inc., Piscataway, NJ, USA). Unbound phosphate was removed by extensive washing of filters in 0.1% phosphoric acid. Kinase activity data was reported as the percent remaining kinase activity in test compounds compared to the solvent control dimethyl sulfoxide (DMSO).
Experimental for NCI-H460 cells: as §2
Experimental for VEGFR-2: Next, the VEGFR-2 phosphorylation inhibitory activities of the newly synthesized compounds were evaluated.
as §3

In the case of `CCN(CC)CCNC(=O)c1c(C)[nH]c(/C=C2\C(=O)Nc3ccc(F)cc32)c1C` [Sunitinib, sunitinib, reference compound], the IC50 came to 1.54 ± 0.08 µM in the data set with HUVEC cells; 7.89 ± 0.6 µM in the data set with 786-O cells; 4.6 ± 0.23 µM in the data set on HCT116 cells [3]; 7.51 ± 0.78 µM in the data set on NCI-H460 cells; 9.48 ± 0.18 µM with Detroit 551 cells [5]. The “acute cytotoxicity, Detroit 551” value in the data set with Detroit 551 cells [1] was “neither our compounds nor sunitinib had acute cytotoxicity”. In addition, the “acute cytotoxicity, HCT116” value in the data set on HCT116 cells [2] was “neither our compounds nor sunitinib had acute cytotoxicity”. Further, in the data set with HCT116 cells [4] (5.0 μM), the “cell cycle profile effect” value is on record as “G0/G1 cell cycle arrest”. Moreover, the inhibition at 1 µM on Aurora A is 50.7%.

`CCN(CC)CCN1Cc2[nH]c(/C=C3\C(=O)Nc4ccc(S(=O)(=O)Nc5ccc(C(F)(F)F)cc5)cc43)c(C)c2C1=O` [Compound 9, (Z)-3-((5-(2-(Diethylamino)ethyl)-3-methyl-4-oxo-1,4,5,6-tetrahydropyrrolo[3,4-b]pyrrol-2-yl)methylene)-2-oxo-N-(4-(trifluoromethyl)phenyl)indoline-5-sulfonamide] came in with a melting point of 231 to 234 °C. The IC50 in the data set on 786-O cells is more than 10 µM. Further, the IC50 in the data set with HCT116 cells [3] was more than 10 µM. Moreover, the IC50 in the data set on NCI-H460 cells was more than 10 µM. Also, on VEGFR-2, the “% inhibition of VEGFR-2 at 80 nM” value was “did not differ from that of the 1% DMSO (control)” and the inhibition at 0.08 µM worked out at 0%. In addition, the IC50 with Detroit 551 cells [5] is more than 10 µM.

In the case of `CCN(CC)CCN1Cc2[nH]c(/C=C3\C(=O)Nc4ccc(NS(C)(=O)=O)cc43)c(C)c2C1=O` [Compound 10, (Z)-N-(3-((5-(2-(Diethylamino)ethyl)-3-methyl-4-oxo-1,4,5,6-tetrahydropyrrolo[3,4-b]pyrrol-2-yl)methylene)-2-oxoindolin-5-yl)methanesulfonamide], the melting point is 245 to 247 °C. In addition, the IC50 in the data set on 786-O cells is more than 10 µM. In addition, the IC50 in the data set on HCT116 cells [3] was more than 10 µM. In addition, in the data set with NCI-H460 cells, the IC50 was more than 10 µM. Further, at VEGFR-2, the inhibition at 0.08 µM turned out to be 4%. Moreover, the IC50 in the data set with Detroit 551 cells [5] is more than 10 µM.

As for `CCN(CC)CCN1Cc2[nH]c(/C=C3\C(=O)Nc4ccc(S(=O)(=O)Nc5ccccc5)cc43)c(C)c2C1=O` [Compound 8, (Z)-3-((5-(2-(Diethylamino)ethyl)-3-methyl-4-oxo-1,4,5,6-tetrahydropyrrolo[3,4-b]pyrrol-2-yl)methylene)-2-oxo-N-phenylindoline-5-sulfonamide], the melting point is 225 to 228 °C. Further, the IC50 with 786-O cells was more than 10 µM. For the same molecule, in the data set with HCT116 cells [3], the IC50 was more than 10 µM. In addition, in the data set with NCI-H460 cells, the IC50 is more than 10 µM. Also, on VEGFR-2, the “% inhibition of VEGFR-2 at 80 nM” value is on record as “did not differ from that of the 1% DMSO (control)” and the inhibition at 0.08 µM was 15%. The IC50 in the data set with Detroit 551 cells [5] is more than 10 µM.

`CCN(CC)CCN1Cc2[nH]c(/C=C3\C(=O)Nc4ccc(S(=O)(=O)N(C)C)cc43)c(C)c2C1=O` [Compound 5, (Z)-3-((5-(2-(diethylamino)ethyl)-3-methyl-4-oxo-1,4,5,6-tetrahydropyrrolo[3,4-b]pyrrol-2-yl)methylene)-N,N-dimethyl-2-oxoindoline-5-sulfonamide] came in with a melting point of 244 to 247 °C. For the same molecule, in the data set on 786-O cells, the IC50 is more than 10 µM. Besides, in the data set with HCT116 cells [3], the IC50 was found to be 8.98 ± 0.92 µM and the “selective index (SI) HCT116” value was more than 1.11. The IC50 with NCI-H460 cells is more than 10 µM. Also, at VEGFR-2, the inhibition at 0.08 µM was 20%. Besides, the IC50 in the data set with Detroit 551 cells [5] is more than 10 µM.

The molecule `CCN(CC)CCN1Cc2[nH]c(/C=C3\C(=O)Nc4ccc(OC)cc43)c(C)c2C1=O` [Compound 13, (Z)-3-((5-(2-(diethylamino)ethyl)-3-methyl-4-oxo-1,4,5,6-tetrahydropyrrolo[3,4-b]pyrrol-2-yl)methylene)-5-methoxyindolin-2-one] returned a melting point of 214 to 216 °C. Further, the IC50 in the data set on HUVEC cells came to 0.74 ± 0.16 µM. Moreover, the “potency in inhibiting in vitro tube formation relative to sunitinib in terms of IC50” value in the data set with HUVEC cells (versus sunitinib) is given as “twofold higher”. Besides, in the data set with 786-O cells, the IC50 stood at 7.86 ± 0.3 µM and the “selective index (SI) 786-O” value was more than 1.27. In addition, in the data set on HCT116 cells [3], the IC50 was found to be 3.06 ± 0.67 µM and the “selective index (SI) HCT116” value is reported as more than 3.27. In addition, in the data set on NCI-H460 cells, the IC50 came to 6.37 ± 1.09 µM and the “selective index (SI) NCI-H460” value is more than 1.57. This molecule returned an IC50 at PDGFRβ of 0.0762 µM. Besides, at VEGFR-2, the IC50 was found to be 0.0478 µM and the inhibition at 0.08 µM is 41%. For the same molecule, the “cell cycle profile effect” value in the data set on HCT116 cells [4] (3.0 μM) is “increase in polyploid cells”. In addition, the “% inhibition of Aurora A at 1.0 μM” value on Aurora A (1.0 μM compound) is on record as 92.9%. The inhibition at 1 µM on Aurora A turned out to be 94.4%. The IC50 in the data set on Detroit 551 cells [5] was more than 10 µM.

In turn, `CCN(CC)CCN1Cc2[nH]c(/C=C3\C(=O)Nc4ccc(S(N)(=O)=O)cc43)c(C)c2C1=O` [Compound 4, (Z)-3-((5-(2-(diethylamino)ethyl)-3-methyl-4-oxo-1,4,5,6-tetrahydropyrrolo[3,4-b]pyrrol-2-yl)methylene)-2-oxoindoline-5-sulfonamide] came in with a melting point of 252 to 255 °C. Besides, in the data set with 786-O cells, the IC50 was more than 10 µM. In addition, the IC50 in the data set on HCT116 cells [3] was more than 10 µM. The IC50 in the data set with NCI-H460 cells was more than 10 µM. Moreover, on VEGFR-2, the “% inhibition of VEGFR-2 at 80 nM” value was “did not differ from that of the 1% DMSO (control)” and the inhibition at 0.08 µM worked out at 0%. Further, the IC50 in the data set with Detroit 551 cells [5] was more than 10 µM.

`CCN(CC)CCN1Cc2[nH]c(/C=C3\C(=O)Nc4ccc([N+](=O)[O-])cc43)c(C)c2C1=O` [Compound 12, (Z)-3-((5-(2-(diethylamino)ethyl)-3-methyl-4-oxo-1,4,5,6-tetrahydropyrrolo[3,4-b]pyrrol-2-yl)methylene)-5-nitroindolin-2-one]: the melting point lay within 229 to 230 °C. Moreover, in the data set on 786-O cells, the IC50 was more than 10 µM. Moreover, the IC50 in the data set on HCT116 cells [3] is more than 10 µM. Further, in the data set on NCI-H460 cells, the IC50 was found to be 6.61 ± 0.8 µM and the “selective index (SI) NCI-H460” value was more than 1.51. At VEGFR-2, the inhibition at 0.08 µM was 13%. Also, the IC50 in the data set on Detroit 551 cells [5] is more than 10 µM.

As to `CCN(CC)CCN1Cc2[nH]c(/C=C3\C(=O)Nc4ccc(C(F)(F)F)cc43)c(C)c2C1=O` [Compound 11, (Z)-3-((5-(2-(Diethylamino)ethyl)-3-methyl-4-oxo-1,4,5,6-tetrahydropyrrolo[3,4-b]pyrrol-2-yl)methylene)-5-(trifluoromethyl)indolin-2-one], the melting point fell in the range of 212 to 215 °C. In the data set on 786-O cells, the IC50 came to 8.49 ± 0.46 µM and the “selective index (SI) 786-O” value is given as more than 1.18. In addition, in the data set with HCT116 cells [3], the IC50 is more than 10 µM. Further, in the data set on NCI-H460 cells, the IC50 was 7.22 ± 1.01 µM and the “selective index (SI) NCI-H460” value is on record as more than 1.39. On VEGFR-2, the “% inhibition of VEGFR-2 at 80 nM” value is recorded as “did not differ from that of the 1% DMSO (control); also recorded: no inhibitory activity” and the inhibition at 0.08 µM was 0%. Moreover, the IC50 in the data set with Detroit 551 cells [5] was more than 10 µM.

For the molecule `CCN(CC)CCN1Cc2[nH]c(/C=C3\C(=O)Nc4ccc(S(=O)(=O)N(CC)CC)cc43)c(C)c2C1=O` [Compound 6, (Z)-3-((5-(2-(diethylamino)ethyl)-3-methyl-4-oxo-1,4,5,6-tetrahydropyrrolo[3,4-b]pyrrol-2-yl)methylene)-N,N-diethyl-2-oxoindoline-5-sulfonamide], the melting point fell in the range of 245 to 247 °C. Further, the IC50 in the data set on 786-O cells is more than 10 µM. In the data set with HCT116 cells [3], the IC50 came to 4.2 ± 0.57 µM and the “selective index (SI) HCT116” value is recorded as more than 2.38. In the data set on NCI-H460 cells, the IC50 is more than 10 µM. At VEGFR-2, the inhibition at 0.08 µM is 0%. In addition, the IC50 in the data set with Detroit 551 cells [5] was more than 10 µM.
